pIC50: −log10 of the molar value.
Columns and labels:
[1] = biological target: T1, IL-17A(FLAG-Tagged): IL-17RA(His-Tagged) (Homo sapiens, UniProt Q16552, K93Q); assay: IL-17A(FLAG-Tagged): IL-17RA(His-Tagged) Binding Disruption Eu-HTRF Assay, Protocol 2; conditions: Protocol 2, FLAG tagged IL-17A 1 nM; simple average if tested more than once
Description: An antibody directed against the FLAG tag of IL-17A (SEQ ID NO: 1) is labeled with the HTRF donor chromophore (Europium-cryptate). IL-17A is present as a dimer that is “locked into” this quaternary structure due to the formation of loop-spanning […] disulfide bridges. The construct of IL-17RA used in the assay excludes the […] portion of the receptor and is fused to a C-terminal 10×His tag (SEQ ID NO:2). An antibody directed against the His tag of the IL-17RA chimera is labeled with the HTRF acceptor chromophore (“D2”). The fluorescence-resonance energy transfer (FRET) depends on the vicinity of the donor chromophore to the acceptor, and interruption of the binding between the IL-17A and IL-17RA causes the reduction/loss of FRET. Therefore, this assay allows to evaluate the compound effect on the binding IL-17A and IL-17RA by monitoring the fluorescence intensity of donor vs acceptor. The assay was run using either Protocol 1 or Protocol 2 as described below.
Protocol 2. 40 nl of 2-fold serial diluted compound solution for total 22 dilution points is added into each well of a 1536-well, white, low-volume, non-binding plate (Greiner #782904), then 2 μl of FLAG tagged IL-17A at 2× final concentration (1 nM) in solution of PBS+0.01% Triton-X100 is added to each well. The assay plate is briefly centrifuged then incubated for 1 h at rt. A mixed solution is prepared containing 2×5 nM 10HIS×IL-17RA, 2×2.5 nM Eu-anti-FLAG (CISBIO), 2×5 nM D2-anti-HIS (CISBIO) in PBS+0.01% Triton-X100+200 mM Potassium Fluoride (Sigma 60238) and 2 μl of mix is added to each well of the assay plate. The plate is briefly centrifuged then incubated for 2 h at rt. The HTRF intensities at the wavelength of donor (615 nm) and acceptor (665 nm) are measured using BMG Pherastar. The ratio between intensities at two wavelengths is calculated and plotted against the compound concentration and the data is fitted to a one-site competition model to yield IC50 of the compound.

[2] = test system: IL-17A-induced G-CSF production in human normal keratinocyte (NHK); assay: NHK Assay: IL-17A-induced G-CSF production in human normal keratinocyte; format: cell-based; conditions: 24 h, IL-17A 5 ng/mL, simple average if tested more than once
Summary of the method: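 Stimulus rhIL-17A 5 ng/mL final, premixed 1 h rt with compound; adult NHK, 5% FBS, 0.2% DMSO. Viability by CellTiter-Glo vs DMSO.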

[3] = biological target: T1, IL-17A(FLAG-Tagged): IL-17RA(His-Tagged); assay: IL-17A(FLAG-Tagged): IL-17RA(His-Tagged) Binding Disruption Eu-HTRF Assay, Protocol 1; conditions: Protocol 1, FLAG tagged IL-17A 2.5 nM; simple average if tested more than once
Summary of the method: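 IC50 came from a one-site competition fit of the acceptor/donor (665/620 nm) HTRF ratio. His-tagged IL-17RA, Eu-anti-FLAG and D2-anti-His were added after a 1 h rt compound preincubation with FLAG-tagged IL-17A dimer in PBS/0.01% Triton X-100, followed by 2 h at rt before reading.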

T1 sequence (Q16552 with tags, fused parts or gaps K93Q): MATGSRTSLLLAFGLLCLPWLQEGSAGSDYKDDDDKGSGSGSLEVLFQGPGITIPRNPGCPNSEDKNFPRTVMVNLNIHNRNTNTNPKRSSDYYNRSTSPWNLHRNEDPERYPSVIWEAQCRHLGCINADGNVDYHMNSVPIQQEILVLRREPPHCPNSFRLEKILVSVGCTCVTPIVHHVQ

Compound	pIC50 [1]	pIC50 [3]	pIC50 ([2]; Homo sapiens, Keratinocyte)	pIC50 [2]
COC[C@H](c1ccc2nc(C(NC(=O)c3nonc3C3CC3)[C@@H](C)O[C@H](C)C(F)(F)F)[nH]c2c1F)N1C[C@@H](C(F)(F)F)NC1=O (single isomer, unassigned) [Example 95, 4-Cyclopropyl-N-((1R*,2R)-1-(7-fluoro-6-((S)-2-methoxy-1-((S)-2-oxo-4-(trifluoromethyl)imidazolidin-1-yl)ethyl)-1H-benzo[d]imidazol-2-yl)-2-(((R)-1,1,1-trifluoropropan-2-yl)oxy)propyl)-1,2,5-oxadiazole-3-carboxamide]	> 7.30			> 7.30
COC[C@H](c1ccc2nc(C(NC(=O)c3nonc3C)[C@@H](C)O[C@H](C)C(F)(F)F)[nH]c2c1F)N1C[C@@H](C(F)(F)F)NC1=O (single isomer, unassigned) [Example 96, N-((1S*,2R)-1-(7-Fluoro-6-((S)-2-methoxy-1-((S)-2-oxo-4-(trifluoromethyl)imidazolidin-1-yl)ethyl)-1H-benzo[d]imidazol-2-yl)-2-(((R)-1,1,1-trifluoropropan-2-yl)oxy)propyl)-4-methyl-1,2,5-oxadiazole-3-carboxamide]	7.00 to 7.30		> 7.30	
COC[C@H](c1ccc2nc(C(NC(=O)c3nonc3C)[C@@H](C)O[C@H](C)C(F)(F)F)[nH]c2c1F)N1C[C@@H](C(F)(F)F)NC1=O (single isomer, unassigned) [Example 97, N-((1R*,2R)-1-(7-Fluoro-6-((S)-2-methoxy-1-((S)-2-oxo-4-(trifluoromethyl)imidazolidin-1-yl)ethyl)-1H-benzo[d]imidazol-2-yl)-2-(((R)-1,1,1-trifluoropropan-2-yl)oxy)propyl)-4-methyl-1,2,5-oxadiazole-3-carboxamide]	> 7.30			> 7.30
C[C@@H](OC1CC1)[C@H](NC(=O)c1nonc1C1CC1)c1nc2cc([C@@H](COC3CC3)N3C[C@@H](C(F)(F)F)NC3=O)ccc2[nH]1 [Example 69, N-((1R,2R)-2-Cyclopropoxy-1-(5-((S)-2-cyclopropoxy-1-((S)-2-oxo-4-(trifluoromethyl)imidazolidin-1-yl)ethyl)-1H-benzo[d]imidazol-2-yl)propyl)-4-cyclopropyl-1,2,5-oxadiazole-3-carboxamide]	> 7.30		> 7.30	
Cc1nonc1C(=O)N[C@H](c1nc2cc([C@@H](COC3CC3)N3C[C@@H](C(F)(F)F)NC3=O)ccc2[nH]1)[C@@H](C)OC1CC1 [Example 70, N-((1R,2R)-2-Cyclopropoxy-1-(5-((S)-2-cyclopropoxy-1-((S)-2-oxo-4-(trifluoromethyl)imidazolidin-1-yl)ethyl)-1H-benzo[d]imidazol-2-yl)propyl)-4-methyl-1,2,5-oxadiazole-3-carboxamide]	> 7.30		> 7.30	
C[C@@H](OC1CC1)[C@H](NC(=O)c1nonc1C1CC1)c1nc2cc([C@@H](COC3CC3)N3CC(F)(F)CNC3=O)ccc2[nH]1 [Example 71, N-((1R,2R)-2-Cyclopropoxy-1-(5-((S)-2-cyclopropoxy-1-(5,5-difluoro-2-oxotetrahydropyrimidin-1(2H)-yl)ethyl)-1H-benzo[d]imidazol-2-yl)propyl)-4-cyclopropyl-1,2,5-oxadiazole-3-carboxamide]	> 7.30		> 7.30	
CC(C)n1ncc(F)c1C(=O)N[C@H](c1nc2cc([C@@H](COC3CC3)N3CC(F)(F)CNC3=O)ccc2[nH]1)[C@@H](C)OC1CC1 [Example 72, N-((1R,2R)-2-Cyclopropoxy-1-(5-((S)-2-cyclopropoxy-1-(5,5-difluoro-2-oxotetrahydropyrimidin-1(2H)-yl)ethyl)-1H-benzo[d]imidazol-2-yl)propyl)-4-fluoro-1-isopropyl-1H-pyrazole-5-carboxamide]	> 7.30		7.00 to 7.30	
Cc1nonc1C(=O)N[C@H](c1nc2cc([C@@H](COC3CC3)N3CC(F)(F)CNC3=O)ccc2[nH]1)[C@@H](C)OC1CC1 [Example 73, N-((1R,2R)-2-Cyclopropoxy-1-(5-((S)-2-cyclopropoxy-1-(5,5-difluoro-2-oxotetrahydropyrimidin-1(2H)-yl)ethyl)-1H-benzo[d]imidazol-2-yl)propyl)-4-methyl-1,2,5-oxadiazole-3-carboxamide]	> 7.30		> 7.30	
Cc1nonc1C(=O)N[C@@H](COC(C)(C)C(F)(F)F)c1nc2cc([C@@H](C3CC3)N3CC4(CC4)NC3=O)ccc2[nH]1 [Example 87, N—((R)-1-(5-((R)-Cyclopropyl(5-oxo-4,6-diazaspiro[2.4]heptan-6-yl)methyl)-1H-benzo[d]imidazol-2-yl)-2-((1,1,1-trifluoro-2-methylpropan-2-yl)oxy)ethyl)-4-methyl-1,2,5-oxadiazole-3-carboxamide]		> 7.30	> 7.30	

Second part, led by results:

pIC50 [1]	pIC50 [3]	Compound	pIC50 ([2]; Homo sapiens, Keratinocyte)	pIC50 [2]
> 7.30	> 7.30	[2H]C1([2H])[C@H](C(F)(F)F)NC(=O)N1[C@H](COC)c1ccc2[nH]c([C@H](COC(C)(C)C(F)(F)F)NC(=O)c3nonc3C)nc2c1 (relative stereo) [Example 54, N—((R*)-1-(5-((S)-2-methoxy-1-((R*)-2-oxo-4-(trifluoromethyl)imidazolidin-1-yl-5,5-d2)ethyl)-1H-benzo[d]imidazol-2-yl)-2-((1,1,1-trifluoro-2-methylpropan-2-yl)oxy)ethyl)-4-methyl-1,2,5-oxadiazole-3-carboxamide]	> 7.30	
> 7.30	> 7.30	C[C@H](c1ccc2[nH]c(C(COC(C)(C)C(F)(F)F)NC(=O)c3nonc3C3CC3)nc2c1)N1C[C@@H](C(F)(F)F)NC1=O (single isomer, unassigned) [Example 7, 4-Cyclopropyl-N—((R*)-1-(5-((R)-1-((S)-2-oxo-4-(trifluoromethyl)imidazolidin-1-yl)ethyl)-1H-benzo[d]imidazol-2-yl)-2-((1,1,1-trifluoro-2-methylpropan-2-yl)oxy)ethyl)-1,2,5-oxadiazole-3-carboxamide]	> 7.30	
> 7.30	> 7.30	CC(C)(OC[C@H](NC(=O)c1nonc1C1CC1)c1nc2cc(CN3C[C@@H](C(F)(F)F)NC3=O)ccc2[nH]1)C(F)(F)F (single isomer, unassigned) [Example 17]	> 7.30	
> 7.30		COC[C@H](c1ccc2[nH]c(C(NC(=O)c3nonc3C)[C@@H](C)OC(C)(C)C(F)(F)F)nc2c1)N1C[C@@H](C(F)(F)F)NC1=O (single isomer, unassigned) [Example 74, N-[(1R*,2R)-1-[5-[(1S)-2-Methoxy-1-[(4S)-2-oxo-4-(trifluoromethyl)imidazolidin-1-yl]ethyl]-1H-benzimidazol-2-yl]-2-(2,2,2-trifluoro-1,1-dimethyl-ethoxy)propyl]-4-methyl-1,2,5-oxadiazole-3-carboxamide]	> 7.30	
> 7.30		COC[C@H](c1ccc2nc(C(NC(=O)c3nonc3C3CC3)[C@@H](C)O[C@H](C)C(F)(F)F)[nH]c2c1F)N1C[C@@H](C(F)(F)F)NC1=O (single isomer, unassigned) [Example 94, 4-Cyclopropyl-N-((1S*,2R)-1-(7-fluoro-6-((S)-2-methoxy-1-((S)-2-oxo-4-(trifluoromethyl)imidazolidin-1-yl)ethyl)-1H-benzo[d]imidazol-2-yl)-2-(((R)-1,1,1-trifluoropropan-2-yl)oxy)propyl)-1,2,5-oxadiazole-3-carboxamide]	> 7.30	

— patent US20250122181A1, “BENZIMIDAZOLES AS MODULATORS OF IL-17” (Janssen Pharmaceutica NV, priority 2021, published 2025)
